Experimental data reported in PubChem BioAssay AID190 (DTP/NCI, 2004).
Several values for one entry are separate records, joined by “and”; a condition that tells them apart may be missing. Equal entries are not always repeated. Toxic doses and inconclusive results are not listed.

Tested on: AKR/Lw mice, AKR lymphoma ip, median survival T/C
Assay: NCI In Vivo Anticancer Drug Screen. Data for tumor model Lymphoma AKR (Transplanted) (intraperitoneal) in AKR/Lw mice
Settings: endpoint: median survival time, higher = longer survival
Procedure: The antitumor activity of compounds was measured in mice bearing transplantable tumors. Survival or tumor size were measured and the results are expressed as the measurement made in the treated group (T) divided by the measurement made in the vehicle treated control group (C). The tumor model used in this assay is Lymphoma AKR (Transplanted) (intraperitoneal) in AKR/Lw mice

[1] = dose: 100.0 mg/kg/injection, schedule: Q04DX003 (ip), vehicle: Klucel (hydroxypropylcellulose) (HPC)
[2] = dose: 200.0 mg/kg/injection, schedule: Q04DX003 (ip), vehicle: Klucel (hydroxypropylcellulose) (HPC)
[3] = dose: 400.0 mg/kg/injection, schedule: Q04DX003 (ip), vehicle: Klucel (hydroxypropylcellulose) (HPC)

For `NC(=S)N/N=C/c1ccc(O)cn1`, the T/C (dose: 3.12 mg/kg/injection, schedule: Q01DX009 (ip), vehicle: Klucel (hydroxypropylcellulose) (HPC)) was 116 % of control, the T/C (dose: 12.5 mg/kg/injection, schedule: Q01DX009 (ip), vehicle: Klucel (hydroxypropylcellulose) (HPC)) was 214 % of control and the T/C (dose: 20.0 mg/kg/injection, schedule: Q06HX008 (ip), vehicle: Klucel (hydroxypropylcellulose) (HPC)) was 115 % of control. The T/C (dose: 20.0 mg/kg/injection, schedule: Q06HX012 (ip), vehicle: Klucel (hydroxypropylcellulose) (HPC)) was 115 % of control, the T/C (dose: 25.0 mg/kg/injection, schedule: Q01DX009 (ip), vehicle: Klucel (hydroxypropylcellulose) (HPC)) was 119 % of control and the T/C (dose: 25.0 mg/kg/injection, schedule: Q04DX003 (ip), vehicle: Klucel (hydroxypropylcellulose) (HPC)) was 116 % of control. The T/C (dose: 30.0 mg/kg/injection, schedule: Q06HX008 (ip), vehicle: Klucel (hydroxypropylcellulose) (HPC)) was 107 % of control, the T/C (dose: 31.25 mg/kg/injection, schedule: Q06HX004 (ip), vehicle: saline) was 116 % of control and the T/C (dose: 31.25 mg/kg/injection, schedule: Q06HX012 (ip), vehicle: saline) was 96 % of control. For the same compound, the T/C (dose: 31.25 mg/kg/injection, schedule: Q06HX016 (ip), vehicle: saline) was 113 % of control, the T/C (dose: 40.0 mg/kg/injection, schedule: Q06HX008 (ip), vehicle: Klucel (hydroxypropylcellulose) (HPC)) was 103 % of control and the T/C (dose: 40.0 mg/kg/injection, schedule: Q06HX012 (ip), vehicle: Klucel (hydroxypropylcellulose) (HPC)) was 123 % of control. For the same compound, the T/C (dose: 50.0 mg/kg/injection, schedule: Q01DX009 (ip), vehicle: Klucel (hydroxypropylcellulose) (HPC)) was 110 % of control and 214 % of control, the T/C (dose: 50.0 mg/kg/injection, schedule: Q04DX003 (ip), vehicle: Klucel (hydroxypropylcellulose) (HPC)) was 123 % of control and the T/C (dose: 50.0 mg/kg/injection, schedule: Q06HX008 (ip), vehicle: Klucel (hydroxypropylcellulose) (HPC)) was 88 % of control. The T/C (dose: 50.0 mg/kg/injection, schedule: Q06HX012 (ip), vehicle: Klucel (hydroxypropylcellulose) (HPC)) was 111 % of control, the T/C (dose: 60.0 mg/kg/injection, schedule: Q06HX008 (ip), vehicle: Klucel (hydroxypropylcellulose) (HPC)) was 119 % of control and the T/C (dose: 60.0 mg/kg/injection, schedule: Q06HX012 (ip), vehicle: Klucel (hydroxypropylcellulose) (HPC)) was 103 % of control. For the same compound, the T/C (dose: 62.5 mg/kg/injection, schedule: Q06HX004 (ip), vehicle: saline) was 90 % of control, the T/C (dose: 62.5 mg/kg/injection, schedule: Q06HX008 (ip), vehicle: saline) was 110 % of control and the T/C (dose: 62.5 mg/kg/injection, schedule: Q06HX012 (ip), vehicle: saline) was 113 % of control. For the same compound, the T/C (dose: 62.5 mg/kg/injection, schedule: Q06HX016 (ip), vehicle: saline) was 120 % of control, the T/C (dose: 75.0 mg/kg/injection, schedule: Q01DX009 (ip), vehicle: Klucel (hydroxypropylcellulose) (HPC)) was 173 % of control and the T/C [1] was 120 % of control. For the same compound, the T/C (dose: 125.0 mg/kg/injection, schedule: Q06HX008 (ip), vehicle: saline) was 96 % of control, the T/C (dose: 125.0 mg/kg/injection, schedule: Q06HX012 (ip), vehicle: saline) was 86 % of control and the T/C [2] was 123 % of control.
In the case of `Nc1nc(=S)c2[nH]cnc2[nH]1`, the T/C (dose: 0.12 mg/kg/injection, schedule: Q01DX009 (ip), vehicle: saline) is reported as 96 % of control, the T/C (dose: 0.25 mg/kg/injection, schedule: Q01DX009 (ip), vehicle: saline) is reported as 96 % of control and the T/C (dose: 0.5 mg/kg/injection, schedule: Q01DX009 (ip), vehicle: saline) is reported as 110 % of control. For the same compound, the T/C (dose: 0.5 mg/kg/injection, schedule: Q04DX003 (ip), vehicle: saline) was 110 % of control, the T/C (dose: 1.0 mg/kg/injection, schedule: Q01DX009 (ip), vehicle: saline) was 93 % of control and 100 % of control and the T/C (dose: 1.0 mg/kg/injection, schedule: Q04DX003 (ip), vehicle: saline) was 120 % of control. For the same compound, the T/C (dose: 2.0 mg/kg/injection, schedule: Q01DX009 (ip), vehicle: saline) was 87 % of control, the T/C (dose: 2.0 mg/kg/injection, schedule: Q04DX003 (ip), vehicle: saline) was 116 % of control and the T/C (dose: 4.0 mg/kg/injection, schedule: Q04DX003 (ip), vehicle: saline) was 120 % of control. The T/C (dose: 8.0 mg/kg/injection, schedule: Q04DX003 (ip), vehicle: saline) was 87 % of control, the T/C (dose: 16.0 mg/kg/injection, schedule: Q04DX003 (ip), vehicle: saline) was 118 % of control and the T/C (dose: 6.2 micrograms/kg/injection, schedule: Q03HX032 (ip), vehicle: saline) was 98 % of control. The T/C (dose: 12.5 micrograms/kg/injection, schedule: Q03HX032 (ip), vehicle: saline) was 98 % of control, the T/C (dose: 25.0 micrograms/kg/injection, schedule: Q03HX032 (ip), vehicle: saline) was 101 % of control and the T/C (dose: 50.0 micrograms/kg/injection, schedule: Q03HX032 (ip), vehicle: saline) was 114 % of control. For the same compound, the T/C (dose: 100.0 micrograms/kg/injection, schedule: Q03HX032 (ip), vehicle: saline) was 118 % of control.
In the case of `COc1ccc(Br)cc1/C=N\NS(=O)(=O)c1ccc(C)cc1`, the T/C (dose: 100.0 mg/kg/injection, schedule: Q01DX001 (ip), vehicle: Klucel (hydroxypropylcellulose) (HPC)) is reported as 106 % of control, the T/C [1] is reported as 106 % of control and the T/C (dose: 200.0 mg/kg/injection, schedule: Q01DX001 (ip), vehicle: Klucel (hydroxypropylcellulose) (HPC)) is reported as 100 % of control. The T/C [2] was 86 % of control, the T/C (dose: 400.0 mg/kg/injection, schedule: Q01DX001 (ip), vehicle: Klucel (hydroxypropylcellulose) (HPC)) was 100 % of control and the T/C [3] was 86 % of control.
In the case of `ClC1=C(Cl)C2(Cl)C3(Cl)C(Cl)=C(Cl)C(Cl)(C34OCCO4)C2(Cl)C12OCCO2` (stereo unspecified), the T/C (dose: 100.0 mg/kg/injection, schedule: Q01DX001 (ip), vehicle: saline) is reported as 96 % of control, the T/C (dose: 200.0 mg/kg/injection, schedule: Q01DX001 (ip), vehicle: saline) is reported as 108 % of control and the T/C (dose: 400.0 mg/kg/injection, schedule: Q01DX001 (ip), vehicle: saline) is reported as 108 % of control.
`Nc1nc(N)nc(N)n1` was tested, and the T/C [1] was 97 % of control, the T/C [2] was 108 % of control and the T/C [3] was 86 % of control. For the same compound, the T/C (dose: 800.0 mg/kg/injection, schedule: Q04DX003 (ip), vehicle: Klucel (hydroxypropylcellulose) (HPC)) was 105 % of control.
